# Literature values in patent US6759063B2, “Methods and compositions for reducing sympathomimetic-induced side effects” (priority 1999, dated 2004).
# Experiments:
# [1] = 150 mg/day; obese outpatients
# [2] = rodents and humans
# [3] = system: human alpha1-adrenoceptors; details: up to the highest concentration that could be tested
# [4] = system: cloned human alpha1A- and alpha1B-adrenoceptors; details: phenylephrine-stimulated; cloned receptors
# [5] = separate studies
smiles,measurement,setting,value
CN[C@@H](C)[C@H](O)c1ccccc1 [ephedrine],adverse side effects versus placebo group,[1],significantly greater adverse side effects
same,thermogenic and anti-obesity properties,[2],potent thermogenic and anti-obesity properties
Cn1c(=O)c2c(ncn2C)n(C)c1=O [caffeine],thermogenic and anti-obesity properties,[2],no effect
CC[C@H](CC[C@@H](C)[C@H]1CC[C@H]2[C@@H]3CC=C4C[C@@H](O)CC[C@]4(C)[C@H]3CC[C@]12C)C(C)C [beta-sitosterol],inhibition of radioligand binding to human alpha1-adrenoceptors,[3],without consistent inhibitory effect
same,inhibition of agonist-induced [3H]inositol phosphate formation,[4],without consistent inhibitory effect
CCN[C@@H](C)Cc1cccc(C(F)(F)F)c1 [dexfenfluramine],weight loss in obese patients,[5],promote weight loss
